In patent US9670210B2, “Cyclopropylamines as LSD1 inhibitors” (Incyte Corporation, priority 2014, dated 2017) one finds IC50 data, which are given here for 32 molecules.

Where only a bound is given, the exact number is not on record here.

The experiment deals with LSD-1 enzyme (Homo sapiens (Human), UniProt O60341).
Protocol: LSD1 Histone Demethylase Biochemical Assay
LANCE LSD1/KDM1A demethylase assay-10 μL of 1 nM LSD-1 enzyme (ENZO BML-SE544-0050) in the assay buffer (50 mM Tris, pH 7.5, 0.01% Tween-20, 25 mM NaCl, 5 mM DTT) were preincubated for 1 hour at 25° C. with 0.8 μL compound/DMSO dotted in black 384 well polystyrene plates. […] After stopping the reactions plates were incubated for 30 minutes and read on a PHERAstar FS plate reader (BMG Labtech).
On to `COCC1(CN[C@@H]2C[C@H]2c2ccccc2)CCN(S(=O)(=O)c2ccn(C)n2)CC1` [Example 116, (1R,2S)—N-({4-(methoxymethyl)-1-[(1-methyl-1H-pyrazol-3-yl)sulfonyl]piperidin-4-yl}methyl)-2-phenylcyclopropanamine], for which the IC50 is less than 100 nM.
The molecule `COc1cccc(C(=O)N2CC(CN[C@@H]3C[C@H]3c3ccccc3)C2)c1` (relative stereo) [Example 27, N-{[1-(3-Methoxybenzoyl)azetidin-3-yl]methyl}-trans-2-phenylcyclopropanamine] had an IC50 of less than 100 nM.
Next, `N#CC1(c2ccccc2)CCN(C(=O)N2CC(CN[C@@H]3C[C@H]3c3ccccc3)C2)CC1` (relative stereo) [Example 16, 4-Phenyl-1-[(3-{[(trans-2-phenylcyclopropyl)amino]methyl}azetidin-1-yl)carbonyl]piperidine-4-carbonitrile]: less than 100 nM; `COCC1(CN[C@@H]2C[C@H]2c2ccccc2)CCN(C(=O)C2CCN(C)CC2)CC1` [Example 41, (1R,2S)—N-({4-(methoxymethyl)-1-[(1-methylpiperidin-4-yl)carbonyl]piperidin-4-yl}methyl)-2-phenylcyclopropanamine]: less than 100 nM; `O=C(O)C1(CN2CCC(CN[C@@H]3C[C@H]3c3ccccc3)(COc3ccccc3F)CC2)CC1` [Example 75, 1-{[4-[(2-fluorophenoxy)methyl]-4-({[(1R,2S)-2-phenylcyclopropyl]amino}methyl)piperidin-1-yl]methyl}cyclopropanecarboxylic acid]: less than 100 nM.
Molecule `COCC1(CN[C@@H]2C[C@H]2c2ccccc2)CCN(S(=O)(=O)c2ccnn2C)CC1` [Example 115, (1R,2S)—N-({4-(methoxymethyl)-1-[(1-methyl-1H-pyrazol-5-yl)sulfonyl]piperidin-4-yl}methyl)-2-phenylcyclopropanamine] came in with an IC50 of less than 100 nM.
`COCC1(CN[C@@H]2C[C@H]2c2ccccc2)CCN(C(=O)N2CC[C@H](O)C2)CC1` [Example 61, (3S)-1-{[4-(methoxymethyl)-4-({[(1R,2S)-2-phenylcyclopropyl]amino}methyl)piperidin-1-yl]carbonyl}pyrrolidin-3-ol] returned an IC50 of less than 100 nM.
Next, `N#Cc1ccc(CC2(CN[C@@H]3C[C@H]3c3ccccc3)CCN(CC3(C(=O)O)CC3)CC2)c(F)c1` [Example 74, 1-{[4-(4-cyano-2-fluorobenzyl)-4-({[(1R,2S)-2-phenylcyclopropyl]amino}methyl)piperidin-1-yl]methyl}cyclopropanecarboxylic acid]: less than 100 nM; `N#Cc1ccc(C(=O)N2CC(CN[C@@H]3C[C@H]3c3ccccc3)C2)cc1` (relative stereo) [Example 25, 4-[(3-{[(trans-2-Phenylcyclopropyl)amino]methyl}azetidin-1-yl)carbonyl]benzonitrile]: less than 100 nM; `N#Cc1ccccc1OCC1(CN[C@@H]2C[C@H]2c2ccccc2)CCN(CC2(C(=O)O)CC2)CC1` [Example 79, 1-{[4-[(2-cyanophenoxy)methyl]-4-({[(1R,2S)-2-phenylcyclopropyl]amino}methyl)piperidin-1-yl]methyl}cyclopropanecarboxylic acid]: less than 100 nM.
On to `NC1(C(=O)N2CCC(CN[C@@H]3C[C@H]3c3ccccc3)(Cc3ccc(F)cc3)CC2)CCC1` [Example 34, 1-{[4-(4-fluorobenzyl)-4-({[(1R,2S)-2-phenylcyclopropyl]amino}methyl)piperidin-1-yl]carbonyl}cyclobutanamine], for which the IC50 was less than 100 nM.
Consider `O=C(O)C1(CN2CCC(CN[C@@H]3C[C@H]3c3ccccc3)(Cc3ccc(F)cc3)CC2)CC1` [Example 31, 1-{[4-(4-fluorobenzyl)-4-({[(1R,2S)-2-phenylcyclopropyl]amino}methyl)piperidin-1-yl]methyl}cyclopropanecarboxylic acid], for which the IC50 was less than 100 nM.
`Cn1cnc(C(=O)N2CCC(C)(CN[C@@H]3C[C@H]3c3ccccc3)CC2)c1` [Example 47, (1R,2S)—N-({4-methyl-1-[(1-methyl-1H-imidazol-4-yl)carbonyl]piperidin-4-yl}methyl)-2-phenylcyclopropanamine]: the IC50 was less than 100 nM.
Next, `CC1(CN[C@@H]2C[C@H]2c2ccccc2)CCN(C(=O)c2ccc(N)nn2)CC1` [Example 49, 6-{[4-methyl-4-({[(1R,2S)-2-phenylcyclopropyl]amino}methyl)piperidin-1-yl]carbonyl}pyridazin-3-amine]: less than 100 nM.
On to `COCC1(CN[C@@H]2C[C@H]2c2ccccc2)CCN(C(=O)N2CCC[C@@H](O)C2)CC1` [Example 109, (3R)-1-{[4-(methoxymethyl)-4-({[(1R,2S)-2-phenylcyclopropyl]amino}methyl)piperidin-1-yl]carbonyl}piperidin-3-ol], for which the IC50 is less than 100 nM.
Molecule `O=C(O)C1(CN2CCC(CN[C@@H]3C[C@H]3c3ccccc3)(COC3CCCCC3)CC2)CCC1` [Example 95, 1-{[4-[(cyclohexyloxy)methyl]-4-({[(1R,2S)-2-phenylcyclopropyl]amino}methyl)piperidin-1-yl]methyl}cyclobutanecarboxylic acid] yielded an IC50 of less than 100 nM.
Turning to `CC1(CN[C@@H]2C[C@H]2c2ccccc2)CCN(C(=O)C2(N)CCCC2)CC1` [Example 51, 1-{[4-methyl-4-({[(1R,2S)-2-phenylcyclopropyl]amino}methyl)piperidin-1-yl]carbonyl}cyclopentanamine], the concentration for half-maximal inhibition (IC50) was less than 100 nM.
Next, `O=C(O)C1(CN2CCC(CN[C@@H]3C[C@H]3c3ccccc3)(COc3cccc(F)c3)CC2)CC1` [Example 77, 1-{[4-[(3-fluorophenoxy)methyl]-4-({[(1R,2S)-2-phenylcyclopropyl]amino}methyl)piperidin-1-yl]methyl}cyclopropanecarboxylic acid]: less than 100 nM; `O=C(O)C1(CN2CCC(CN[C@@H]3C[C@H]3c3ccccc3)(COCc3ccccc3)CC2)CC1` [Example 72, 1-{[4-[(benzyloxy)methyl]-4-({[(1R,2S)-2-phenylcyclopropyl]amino}methyl)piperidin-1-yl]methyl}cyclopropanecarboxylic acid]: less than 100 nM; `COCC1(CN[C@@H]2C[C@H]2c2ccccc2)CCN(C(=O)[C@H]2CC[C@H](CO)CC2)CC1` [Example 100, (trans-4-{[4-(methoxymethyl)-4-({[(1R,2S)-2-phenylcyclopropyl]amino}methyl)piperidin-1-yl]carbonyl}cyclohexyl)methanol]: less than 100 nM.
Next, `COCC1(CN[C@@H]2C[C@H]2c2ccccc2)CCN(S(=O)(=O)c2cnn(C)c2)CC1` [Example 114, (1R,2S)—N-({4-(methoxymethyl)-1-[(1-methyl-1H-pyrazol-4-yl)sulfonyl]piperidin-4-yl}methyl)-2-phenylcyclopropanamine]: less than 100 nM; `Fc1ccc(CN2CCC(N[C@@H]3C[C@H]3c3ccccc3)CC2)cc1` (relative stereo) [Example 5, 1-(4-Fluorobenzyl)-N-(trans-2-phenylcyclopropyl)piperidin-4-amine]: less than 100 nM.
Next, `O=C(O)C1(CN2CCC(CN[C@@H]3C[C@H]3c3ccccc3)(COc3ncc(F)cn3)CC2)CC1` [Example 88, 1-{[4-{[(5-fluoropyrimidin-2-yl)oxy]methyl}-4-({[(1R,2S)-2-phenylcyclopropyl]amino}methyl)piperidin-1-yl]methyl}cyclopropanecarboxylic acid]: less than 100 nM; `O=C(N1CCC(C(F)(F)F)CC1)N1CC(CN[C@@H]2C[C@H]2c2ccccc2)C1` (relative stereo) [Example 13, Trans-2-phenyl-N-[(1-{[4-(trifluoromethyl)piperidin-1-yl]carbonyl}azetidin-3-yl)methyl]cyclopropanamine]: less than 100 nM.
Regarding `COCC1(CN[C@@H]2C[C@H]2c2ccccc2F)CCN(CC2(C(=O)O)CCC2)CC1` [Example 64, 1-{[4-({[(1R,2S)-2-(2-fluorophenyl)cyclopropyl]amino}methyl)-4-(methoxymethyl)piperidin-1-yl]methyl}cyclobutanecarboxylic acid], the IC50 is less than 100 nM.
The molecule `COCC1(CN[C@@H]2C[C@H]2c2ccccc2)CCN(Cc2ccc(C(=O)O)cc2)CC1` [Example 62, 4-{[4-(methoxymethyl)-4-({[(1R,2S)-2-phenylcyclopropyl]amino}methyl)piperidin-1-yl]methyl}benzoic acid] showed an IC50 of less than 100 nM.
Then `COCC1(CN[C@@H]2C[C@H]2c2ccccc2)CCN(C(=O)N2CCC(O)CC2)CC1` [Example 112, 1-{[4-(methoxymethyl)-4-({[(1R,2S)-2-phenylcyclopropyl]amino}methyl)piperidin-1-yl]carbonyl}piperidin-4-ol], with less than 100 nM.
Molecule `COCC1(CN[C@@H]2C[C@H]2c2ccccc2)CCN(C(=O)N2CCC(OC)CC2)CC1` [Example 113, (1R,2S)—N-({4-(methoxymethyl)-1-[(4-methoxypiperidin-1-yl)carbonyl]piperidin-4-yl}methyl)-2-phenylcyclopropanamine] showed a concentration for half-maximal inhibition (IC50) of less than 100 nM.
In the case of `N#CCC1(CN[C@@H]2C[C@H]2c2ccccc2)CCN(C(=O)c2cccc(F)c2)CC1` (relative stereo) [Example 8, (1-(3-Fluorobenzoyl)-4-{[(trans-2-phenylcyclopropyl)amino]methyl}piperidin-4-yl)acetonitrile], the IC50 is less than 100 nM.
Then `N#Cc1cccc(CC2(CN[C@@H]3C[C@H]3c3ccccc3)CCN(CC3(C(=O)O)CC3)CC2)c1` [Example 56, 1-{[4-(3-cyanobenzyl)-4-({[(1R,2S)-2-phenylcyclopropyl]amino}methyl)piperidin-1-yl]methyl}cyclopropanecarboxylic acid], with less than 100 nM.
Next, `N#Cc1ccc(OCC2(CN[C@@H]3C[C@H]3c3ccccc3)CCN(CC3(C(=O)O)CCC3)CC2)cc1` [Example 85, 1-{[4-[(4-cyanophenoxy)methyl]-4-({[(1R,2S)-2-phenylcyclopropyl]amino}methyl)piperidin-1-yl]methyl}cyclobutanecarboxylic acid]: less than 100 nM; `CC1(CN[C@@H]2C[C@H]2c2ccccc2)CCN(C(=O)c2c[nH]nc2N)CC1` [Example 50, 4-{[4-methyl-4-({[(1R,2S)-2-phenylcyclopropyl]amino}methyl)piperidin-1-yl]carbonyl}-1H-pyrazol-3-amine]: less than 100 nM.

The term IC50 denotes the concentration at which inhibition is half-maximal. Read a low IC50 as inhibition by little substance.
